Measured values reported in patent EP3373009A1, “FLUORESCENT COMPOUNDS FOR THE DETECTION OF MALIGNANT MELANOMA” (Karlsruher Institut für Technologie, priority 2017, dated 2018).

Columns and labels:
HeLa cells = experiment: Cellular uptake of the MSF in 2D cell culture, evaluated by CLSM (Example 1), non-affected control cells; type: cell-based, human; settings: 20 µM in DMF, 5 hrs
Description: (§1) Two-dimensional cell cultures were treated with the fluorescent compound (I-1) as the MSF, represented by the following formula: [drawing 22]
(§2) Diverse cell lines as well as primary skin cells such as U2OS, SHSY, A459, H4, Hek293, HepG2, HCT116, U251, MCF-7, Ratfib, HUVEC, Fibroblasts, and HeLa were treated with the MSF at a concentration of 20 µM in DMF (dimethylformamide) for 5 hrs and subsequently evaluated by means of CLSM (confocal laser scanning microscopy).
(§3) In addition, murine (MEB4) as well as human (SK-Mel28) malignant melanoma cells were treated with the MSF under the same conditions.
(§4) The experimental procedure was similar to that of Example 2, as described below.
(§5) The aforementioned cells were seeded in an ibidi® µ-slide 8 well in a density of 2x10^5/mL and cultured for two days to confluency, before being treated with the fluorescent compounds in a concentration of 20 µM in DMF (dimethylformamide). After an incubation time of 5 hrs, the adherent cell layers were washed three times with PBS (phosphate buffered saline) and the nuclei were stained with Hoechst 33342 (Invitrogen, 0.5 µg/mL, 20 min). During the microscopic studies (Leica TCS-SP-5, inverted microscope), the fluorescent compounds were excited using an Ar-laser at 488 nm. Excitation of the Hoechst dye was accomplished with an UV-Laser at 351 and 364 nm. […]

[1] = tested on: human melanoma cells SK-Mel28; experiment: Cellular uptake of fluorescent compounds by CLSM with fluorescence quantification (Example 2, Fig. 3); type: cell-based; settings: 20 µM in DMF, 5 hrs; for fluorescence signal: excitation 488 nm, background subtracted; for difference in the uptake between SK-Mel28 and HeLa cells: SK-Mel28 versus HeLa (negative control)
Description: The cellular uptake of the fluorescent compounds according to the present invention was studied by treatment of human melanoma cells SK-Mel28 and HeLa cells (human cervix carcinoma cell line as a negative control, common model cell line) and their investigation via CLSM (confocal laser scanning microscopy).
The aforementioned cells were seeded in an ibidi® µ-slide 8 well in a density of 2x10^5/mL and cultured for two days to confluency, before being treated with the fluorescent compounds in a concentration of 20 µM in DMF (dimethylformamide). After an incubation time of 5 hrs, the adherent cell layers were washed three times with PBS (phosphate buffered saline) and the nuclei were stained with Hoechst 33342 (Invitrogen, 0.5 µg/mL, 20 min). During the microscopic studies (Leica TCS-SP-5, inverted microscope), the fluorescent compounds were excited using an Ar-laser at 488 nm. Excitation of the Hoechst dye was accomplished with an UV-Laser at 351 and 364 nm. Due to the overlap of the emission spectra of both dyes, a sequential mode was chosen for recording the cell images.
The resulting cell images were analyzed in terms of fluorescence quantification at 488 nm excitation using the software imaged 1.50i (Wayne Rasband, National Institutes of Health, USA).
From each cell image, five cells were selected as regions of interest and the related fluorescence signals were quantified (mean value and standard deviation). Additionally, three cell-free regions were selected in each cell image as background and the resulting background signal from these regions was subtracted from the cell signal.

MEB4 cells = experiment: Cellular uptake of the MSF in 2D cell culture, evaluated by CLSM (Example 1); type: cell-based, murine; settings: 20 µM in DMF, 5 hrs
Description: as §1, §2, §3, §4, §5

Row | Structure (SMILES) | fluorescence originating from the MSF in CLSM images (HeLa cells; HeLa cells, Fig. 1) | uptake by the cells (HeLa cells; HeLa non-affected cells) | fluorescence signal [1] | difference in the uptake between SK-Mel28 and HeLa cells [1] | fluorescence generated by the MSF in CLSM images (MEB4 cells; MEB4 cells, Fig. 2) | uptake by the cells (MEB4 cells; MEB4 malignant melanoma cells)
1 | O=C(c1ccccc1-c1c2ccc(=O)cc-2oc2cc(O)ccc12)N1CCN(C(=O)C2(F)C#CCCCCC2)CC1 (stereo not shown) [I-1] | no fluorescence apparent | not significantly been taken up | high fluorescence signal | large difference in the uptake | can be recognized throughout the cytoplasm | effectively been taken up
2 | O=C(c1ccc(OC2C#CCCCCC2)cc1)N1CCN(C(=O)c2ccccc2-c2c3ccc(=O)cc-3oc3cc(O)ccc23)CC1 (stereo not shown) [I-14] | – | – | slightly weaker fluorescence signals | significant differences in the uptake | – | –
3 | O=C(OCC1CSCC#CCO1)N1CCN(C(=O)c2ccccc2-c2c3ccc(=O)cc-3oc3cc(O)ccc23)CC1 (stereo not shown) [I-17] | – | – | slightly weaker fluorescence signals | significant differences in the uptake | – | –
4 | O=C(c1ccccc1-c1c2ccc(=O)cc-2oc2cc(O)ccc12)N1CCN(C(=O)C23CC4CC(CC(C4)C2)C3)CC1 [I-18] | – | – | slightly weaker fluorescence signals | significant differences in the uptake | – | –
5 | O=C(c1ccc2[nH]ccc2c1)N1CCN(C(=O)c2ccccc2-c2c3ccc(=O)cc-3oc3cc(O)ccc23)CC1 [I-20] | – | – | slightly weaker fluorescence signals | significant differences in the uptake | – | –
6 | O=C(NCCCCNC(=O)C1(F)C#CCCCCC1)c1ccc(-c2c3ccc(=O)cc-3oc3cc(O)ccc23)c(C(=O)O)c1 (stereo not shown) [I-25] | – | – | slightly weaker fluorescence signals | significant differences in the uptake | – | –
